# Measured values taken from patent US9902713B2, “Neuroprotective compounds and use thereof” (BOARD OF REGENTS OF THE UNIVERSITY OF TEXAS SYSTEM, priority 2013, dated 2018).
# Assays:
# U2OS cells = assay: Protection from doxorubicin-mediated toxicity (Dox:Tox); assay type: cell-based
# newborn neurons = assay: Survival of BrdU-prelabeled newborn neurons (FIG. 4); assay type: in vivo, mice; conditions: BrdU bolus, then twice-daily IP 7 days
# Procedure: (§1) Adult mice were administered a bolus of BrdU (150 mg/kg) to label newborn neurons, and 24 hours later, twice-daily IP treatment was begun with vehicle or compound for 7 days. At the end of the 7 days, the number of surviving BrdU-labeled neurons was quantified. Importantly, under the conditions of this experiment, newborn neurons were labeled prior to exposure to drug, so any increase in number of neurons can be attributed to neuroprotective activity rather than proliferative effects. […] Data shown are mean+/−SEM. P values are shown for comparison to VEH treated group, and were obtained by one-way ANOVA with Dunnet's post-hoc test, using GraphPad Prism 5.0. Asterisks indicate p<0.01 (*) or p<0.0001 (***).
# as §1, with “Specifically, in FIG. 4, adult” for “Adult”, “Asterisks indicate p<0.01 (*) or p<0.0001 (***).” left out
# [1] = Metabolic stability in hepatocytes; assay type: in vitro ADME; conditions: murine hepatocytes
# Procedure: The pharmacokinetic and toxicity profiles of P7C3-S243 were evaluated using both in vivo and in vitro methods. Having observed near complete metabolic stability in the presence of murine hepatocytes (T1/2>240 min), we monitored plasma and brain levels of the compound following IV, oral and IP dosing.
# Protein binding = assay type: in vitro ADME
# blood-brain barrier = assay: Blood brain barrier permeability assay (Evans blue); assay type: in vivo; conditions: sham-injured mice, 3 days of daily treatment
# Excerpt: On the basis of the promising results seen with administration of P7C3-A20 or P7C3-S243 immediately after injury, we sought to determine whether P7C3-S243 could offer protective efficacy when treatment was initiated later. Because TBI can disrupt the blood-brain barrier (BBB), we first examined BBB integrity over time by means of the Evans blue assay. Evans blue is an azo dye with tight affinity for albumin, such that in serum virtually all Evans blue is albumin-bound. Normally, serum albumin cannot cross the BBB. However, when the BBB is compromised, albumin and its bound Evans blue can enter the CNS. The magnitude of Evans blue accumulation in the brain can then be spectrophotometrically determined in order to monitor disruption of the BBB (Uyama et al., 1988; Hawkins and Egleton, 2006). With this technique, we observed significant disruption of the BBB 6 hours after blast-injury, with integrity of the BBB recovering to normal 18 hours later (FIG. 21B).
# Blood brain barrier (BBB) permeability assay. […] To quantify the extravasation of albumin-bound EBD in each brain, tissue was weighed and incubated for 30 minutes at room temperature in 50% Tricholoracetic acid (TCA) in PBS at a 3:1 μl/mg ratio. […] Fluorescence was measured using a SpectraMax M2^e (Molecular Devices) in 100 μl of samples plated on a 96-well plate at excitation wavelength of 620 nm and an emission wavelength of 680 nm.
# [2] = test system: cultured cortical neurons; assay: MPP+ toxicity in cultured neurons (MTT); assay type: cell-based; conditions: 10 μM compound, 10 μM MPP+, 24 hrs
# Procedure: FIGS. 35A-35B show P7C3-S243 and P7C3-A20 protect cultured hippocampal and cortical neurons from MPP^+ toxicity. […] Experiments were performed 2 independent times with 8-12 replicates of each sample both times.
# H2009 = assay: Toxicity towards human cancer cell line; assay type: cell-based; conditions: NCI-H2009
# 3A4 = 3A4 (Homo sapiens, UniProt P08684); assay: Cytochrome P450 inhibition; assay type: in vitro ADME
# 3A4, sequence (P08684 whole entry): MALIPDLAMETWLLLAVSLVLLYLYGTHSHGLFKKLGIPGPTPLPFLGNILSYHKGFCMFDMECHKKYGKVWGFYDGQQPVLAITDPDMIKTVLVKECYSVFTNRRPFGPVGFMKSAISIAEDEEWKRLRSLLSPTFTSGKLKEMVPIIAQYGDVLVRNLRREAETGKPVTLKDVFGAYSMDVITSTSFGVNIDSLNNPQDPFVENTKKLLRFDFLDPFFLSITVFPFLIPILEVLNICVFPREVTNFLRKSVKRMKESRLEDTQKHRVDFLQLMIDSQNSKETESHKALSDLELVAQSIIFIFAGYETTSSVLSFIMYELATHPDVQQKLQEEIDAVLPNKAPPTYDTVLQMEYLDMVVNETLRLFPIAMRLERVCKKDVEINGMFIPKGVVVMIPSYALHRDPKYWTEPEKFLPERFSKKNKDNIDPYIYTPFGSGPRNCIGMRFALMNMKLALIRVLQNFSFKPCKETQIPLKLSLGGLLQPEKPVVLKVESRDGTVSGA
# 2C9 = 2C9 (Homo sapiens, UniProt P11712); assay: Cytochrome P450 inhibition; assay type: in vitro ADME
# 2C9, sequence (P11712 whole entry): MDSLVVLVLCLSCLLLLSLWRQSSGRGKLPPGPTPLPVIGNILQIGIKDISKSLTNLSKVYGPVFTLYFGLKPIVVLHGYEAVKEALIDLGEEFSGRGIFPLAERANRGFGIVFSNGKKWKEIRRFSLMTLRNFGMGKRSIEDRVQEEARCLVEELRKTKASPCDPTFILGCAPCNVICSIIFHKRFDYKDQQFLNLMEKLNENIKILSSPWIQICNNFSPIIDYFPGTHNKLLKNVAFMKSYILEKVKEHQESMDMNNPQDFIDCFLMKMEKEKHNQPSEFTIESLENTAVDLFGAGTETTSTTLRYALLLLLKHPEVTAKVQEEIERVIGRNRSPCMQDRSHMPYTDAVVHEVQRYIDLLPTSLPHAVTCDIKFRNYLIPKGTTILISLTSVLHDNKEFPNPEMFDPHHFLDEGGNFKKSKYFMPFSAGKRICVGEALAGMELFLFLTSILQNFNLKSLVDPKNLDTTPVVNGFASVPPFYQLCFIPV
# [3] = molecular target: (Homo sapiens, UniProt P10635); assay: Cytochrome P450 inhibition; assay type: in vitro ADME; conditions: 3D6
# (Homo sapiens, UniProt P10635), sequence (P10635 whole entry): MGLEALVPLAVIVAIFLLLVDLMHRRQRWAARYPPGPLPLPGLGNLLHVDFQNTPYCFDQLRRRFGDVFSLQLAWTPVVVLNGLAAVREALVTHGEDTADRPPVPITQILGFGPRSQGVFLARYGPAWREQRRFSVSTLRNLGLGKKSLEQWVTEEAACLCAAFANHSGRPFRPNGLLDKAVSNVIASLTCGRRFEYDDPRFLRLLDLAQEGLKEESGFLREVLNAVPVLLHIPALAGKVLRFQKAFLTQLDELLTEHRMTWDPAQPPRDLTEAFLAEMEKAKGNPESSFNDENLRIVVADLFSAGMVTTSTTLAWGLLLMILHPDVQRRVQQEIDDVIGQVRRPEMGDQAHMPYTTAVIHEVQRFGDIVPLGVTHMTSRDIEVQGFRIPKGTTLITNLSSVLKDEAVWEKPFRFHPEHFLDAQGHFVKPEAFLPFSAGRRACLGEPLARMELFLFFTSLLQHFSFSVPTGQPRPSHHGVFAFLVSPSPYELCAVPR
# 2C8 = 2C8 (Homo sapiens, UniProt P10632); assay: Cytochrome P450 inhibition; assay type: in vitro ADME
# 2C8, sequence (P10632 whole entry): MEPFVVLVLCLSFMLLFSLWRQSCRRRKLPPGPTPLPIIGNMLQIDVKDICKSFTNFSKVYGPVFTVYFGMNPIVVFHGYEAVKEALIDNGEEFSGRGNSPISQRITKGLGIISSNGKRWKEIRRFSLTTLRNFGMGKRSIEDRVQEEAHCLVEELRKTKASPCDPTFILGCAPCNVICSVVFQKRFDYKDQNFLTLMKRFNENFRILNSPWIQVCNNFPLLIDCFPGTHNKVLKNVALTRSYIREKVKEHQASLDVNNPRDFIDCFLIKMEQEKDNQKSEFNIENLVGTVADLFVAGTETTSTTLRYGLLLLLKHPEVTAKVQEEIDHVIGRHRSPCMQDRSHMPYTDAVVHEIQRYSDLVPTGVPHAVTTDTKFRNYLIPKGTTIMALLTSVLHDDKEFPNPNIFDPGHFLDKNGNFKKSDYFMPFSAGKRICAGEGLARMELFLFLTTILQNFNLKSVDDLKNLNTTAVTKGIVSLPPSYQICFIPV
# 2B6 = 2B6 (Homo sapiens, UniProt P20813); assay: Cytochrome P450 inhibition; assay type: in vitro ADME
# 2B6, sequence (P20813 whole entry): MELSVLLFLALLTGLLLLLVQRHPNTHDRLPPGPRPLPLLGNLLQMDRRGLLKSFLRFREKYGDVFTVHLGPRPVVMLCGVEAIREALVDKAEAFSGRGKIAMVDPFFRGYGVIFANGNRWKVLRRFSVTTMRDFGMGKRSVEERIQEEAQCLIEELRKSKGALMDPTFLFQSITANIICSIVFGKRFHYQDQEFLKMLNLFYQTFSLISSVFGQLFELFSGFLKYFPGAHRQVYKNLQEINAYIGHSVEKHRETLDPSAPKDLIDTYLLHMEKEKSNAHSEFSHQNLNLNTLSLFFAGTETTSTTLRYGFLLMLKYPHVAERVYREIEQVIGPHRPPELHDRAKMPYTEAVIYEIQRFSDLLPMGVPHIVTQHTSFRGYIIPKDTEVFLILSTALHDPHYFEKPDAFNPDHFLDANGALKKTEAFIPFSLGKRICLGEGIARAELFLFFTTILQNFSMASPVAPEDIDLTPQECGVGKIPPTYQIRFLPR
# blast-injured mice = assay: Foot slip assay after blast-injury; assay type: in vivo; conditions: 28 days after injury, daily oral 6 mg/kg/day from 24 hours
# Excerpt: Because the cerebellum controls coordination, we next assayed their balance and coordination, using standard procedures (Luong et al., 2011). Mice were trained to cross an 80 cm long beam over 2 days, and then sham or blast-injured on day 3. […] Mice were videotaped during the test, and then analyzed for the number of foot slips by observers blind to treatment group. […] Thus, protective efficacy for cerebellar axonal degeneration after injury by (−)-P7C3-S243 correlated with preservation of motor coordination.
# Foot slip assay. We used standard procedures described by Luong et al. (2011) to measure motor balance coordination. During the training period, mice were trained to cross the 80 cm beam to enter a black box with nesting material 3 times a day over 2 consecutive days. Mice were then sham-or blast-Injured on the next day. 24 hrs after injury, daily administration with (−)-P7C3-S243 or vehicle was initiated. Animals were then tested 7 and 28 days after injury. Mice performance was videotaped during the test and foot slips were analyzed by an observer blind to condition and treatment group.
# CYP1A2 = CYP1A2 (Homo sapiens, UniProt P05177); assay: Cytochrome P450 inhibition
# CYP1A2, sequence (P05177 whole entry): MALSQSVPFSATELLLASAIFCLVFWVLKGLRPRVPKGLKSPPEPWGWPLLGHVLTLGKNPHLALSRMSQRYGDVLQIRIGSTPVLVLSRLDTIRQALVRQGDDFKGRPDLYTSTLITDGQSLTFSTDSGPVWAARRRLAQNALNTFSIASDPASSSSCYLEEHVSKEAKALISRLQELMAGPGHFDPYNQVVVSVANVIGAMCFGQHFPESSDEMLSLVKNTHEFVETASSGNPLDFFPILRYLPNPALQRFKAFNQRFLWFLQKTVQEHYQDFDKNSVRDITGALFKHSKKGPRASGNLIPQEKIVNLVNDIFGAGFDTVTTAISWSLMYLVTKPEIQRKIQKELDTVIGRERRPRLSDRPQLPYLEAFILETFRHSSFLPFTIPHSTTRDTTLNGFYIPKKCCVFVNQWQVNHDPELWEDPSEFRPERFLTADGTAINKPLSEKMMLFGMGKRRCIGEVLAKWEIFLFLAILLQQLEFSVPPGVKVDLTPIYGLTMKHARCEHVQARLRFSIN
# CYP2C19 = CYP2C19 (Homo sapiens, UniProt P33261); assay: Cytochrome P450 inhibition
# CYP2C19, sequence (P33261 whole entry): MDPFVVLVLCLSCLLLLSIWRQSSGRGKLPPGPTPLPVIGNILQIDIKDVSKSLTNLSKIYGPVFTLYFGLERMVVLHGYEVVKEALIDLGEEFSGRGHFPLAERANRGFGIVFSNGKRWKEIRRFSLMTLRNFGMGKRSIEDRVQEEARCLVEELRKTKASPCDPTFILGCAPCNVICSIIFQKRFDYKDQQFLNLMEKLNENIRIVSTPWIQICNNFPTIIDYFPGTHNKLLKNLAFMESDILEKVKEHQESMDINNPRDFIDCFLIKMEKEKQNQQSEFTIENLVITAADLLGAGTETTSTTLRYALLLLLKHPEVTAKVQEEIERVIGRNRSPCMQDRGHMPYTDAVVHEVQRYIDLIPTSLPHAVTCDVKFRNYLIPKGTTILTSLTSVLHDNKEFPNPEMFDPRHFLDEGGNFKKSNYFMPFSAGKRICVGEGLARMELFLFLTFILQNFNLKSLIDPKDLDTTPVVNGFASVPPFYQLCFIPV
smiles,measurement,setting,value
"COc1cccc(NCC(F)Cn2c3ccc(Br)cc3c3cc(Br)ccc32)c1 (stereo not shown) [P7C3-A20, N-(3-(3,6-dibromo-9H-carbazol-9-yl)-2-fluoropropyl)-3-methoxyaniline]",level of compound required for maximal Dox:Tox protection,U2OS cells,3 µM
same,protection from doxorubicin-mediated cell toxicity,"U2OS cells; U2OS cells, FIG. 11",dose-responsive activity
"COc1cccc(NCC(F)Cn2c3ccc(Br)cc3c3cc(Br)ccc32)n1 (racemic) [P7C3-S243, N-(3-(3,6-dibromo-9H-carbazol-9-yl)-2-fluoropropyl)-6-methoxypyridin-2-amine]",protection down to (dose),newborn neurons,1 mg/kg/day
same,T1/2,[1],> 4 h
same,protein binding,Protein binding,high
same,BBB integrity,blood-brain barrier,did not compromise BBB integrity
same,protection (MTT),[2],significant protection
"COc1cccc(NCC(F)Cn2c3ccc(Br)cc3c3cc(Br)ccc32)n1 (single isomer, unassigned; (-)) [(−)-P7C3-S243, (−)-N-(3-(3,6-dibromo-9H-carbazol-9-yl)-2-fluoropropyl)-6-methoxypyridin-2-amine]",IC50,H2009,> 10 µM
same,sensitivity of cytochrome P450,3A4,insensitive
same,sensitivity of cytochrome P450,2C9,insensitive
same,sensitivity of cytochrome P450,[3],insensitive
same,sensitivity of cytochrome P450,2C8,insensitive
same,sensitivity of cytochrome P450,2B6,insensitive
same,increase in number of foot slips,blast-injured mice,normalized
same,IC50,CYP1A2,20 µM
same,IC50,CYP2C19,1.9 µM
